Measured values from article PMC7724566, “Prospects for Clinical Development of Stat5 Inhibitor IST5-002: High Transcriptomic Specificity in Prostate Cancer and Low Toxicity In Vivo” (Cancers, 2020).

Assays:
[1] = target: T1, JAK3 (Homo sapiens, UniProt P52333); assay: Cell-based tyrosine phosphorylation of Jak kinases (IP/immunoblot); parameters: endogenous in cells; host or cells: DU145 and CWR22Pc; details: 6 µM, 6 h
T1 sequence (P52333 1-1124): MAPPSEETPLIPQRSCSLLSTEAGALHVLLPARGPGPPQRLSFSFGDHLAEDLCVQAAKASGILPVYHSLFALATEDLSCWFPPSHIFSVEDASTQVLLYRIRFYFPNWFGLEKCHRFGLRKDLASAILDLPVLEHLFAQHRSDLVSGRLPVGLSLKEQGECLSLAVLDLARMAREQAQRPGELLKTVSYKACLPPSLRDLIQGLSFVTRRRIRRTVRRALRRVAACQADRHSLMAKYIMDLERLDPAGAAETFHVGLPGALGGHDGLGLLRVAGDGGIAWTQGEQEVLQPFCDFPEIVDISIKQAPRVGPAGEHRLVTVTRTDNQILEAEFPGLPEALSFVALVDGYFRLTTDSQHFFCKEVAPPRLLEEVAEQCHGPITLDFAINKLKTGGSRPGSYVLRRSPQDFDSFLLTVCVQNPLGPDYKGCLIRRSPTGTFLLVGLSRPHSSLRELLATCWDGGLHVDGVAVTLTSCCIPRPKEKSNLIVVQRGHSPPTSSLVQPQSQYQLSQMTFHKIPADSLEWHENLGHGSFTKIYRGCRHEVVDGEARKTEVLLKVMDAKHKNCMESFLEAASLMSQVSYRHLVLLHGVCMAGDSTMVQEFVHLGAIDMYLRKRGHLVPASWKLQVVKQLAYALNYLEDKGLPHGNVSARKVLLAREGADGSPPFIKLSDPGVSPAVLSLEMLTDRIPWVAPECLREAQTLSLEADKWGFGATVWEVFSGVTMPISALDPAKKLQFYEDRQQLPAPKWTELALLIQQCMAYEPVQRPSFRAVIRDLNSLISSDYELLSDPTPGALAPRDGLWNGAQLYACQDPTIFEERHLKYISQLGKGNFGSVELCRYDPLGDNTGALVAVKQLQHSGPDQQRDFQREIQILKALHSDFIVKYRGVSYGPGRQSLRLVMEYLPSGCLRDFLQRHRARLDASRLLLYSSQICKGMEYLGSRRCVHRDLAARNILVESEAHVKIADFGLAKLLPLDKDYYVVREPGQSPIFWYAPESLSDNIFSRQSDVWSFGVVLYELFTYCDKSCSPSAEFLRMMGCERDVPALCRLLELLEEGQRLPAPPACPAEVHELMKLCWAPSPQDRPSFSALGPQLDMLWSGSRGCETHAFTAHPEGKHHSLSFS
Text: (§1) Figure 5 Both IST5 and IST5-M suppress dimerization of Stat5 with similar efficacies in prostate cancer cells. (A), IST5 and IST5-M inhibit equally potently dimerization of Stat5 in native-gel-based Stat5 dimerization assay. CWR22Rv1 cells were transfected with STAT5A-eYFP (Stat5 wild type), STAT5A-N642H-eYFP (constitutive activated Stat5 by N642H mutation, as a positive control) or STAT3-eYFP (Stat3 wild type, as a negative control) constructs for 3 days. CWR22Rv1 cells were serum-starved for 16 h, pretreated with vanadate (1 mM) for 2 h, followed by treatment with vehicle, IST5 and IST5-M (1 µM) for 6 h and stimulation with Prl (10 nM) for 1 h. Dimerization of Stat5 was analyzed by detection of the eYFP fluorescence of the native Coomassie gel. (B), IST5 and IST5-M inhibited cytokine-induced dimerization of Stat5 with high efficacy in PC cells. PC-3 cells were co-transfected with pCMV-3Flag-Stat5a, pCMV-3Myc-Stat5a, and pPrlR plasmids. Cells were serum-starved for 16 h, pretreated with IST5, IST5-M or vehicle at indicated concentrations for 2 h, followed by stimulation with Prl (10 nM) for 30 min. Anti-MYC mAb was utilized to immunoprecipitate the MYC-tagged Stat5a and blotted with anti-FLAG mAb or anti-MYC mAb, as indicated. […] (C), densitometric analyses of the Stat5 dimerization data based on co-immunoprecipitations and immunoblotting in (B). […] Prostate cancer cells were treated with IST5 (6 µM) or vehicle for 6 h. Jak1, Jak2, Jak3 and Tyk2 were immunoprecipitated and blotted with anti-phospho-tyrosine, Jak1, Jak2, Jak3 and Tyk2 antibodies. Whole cell lysates (WCL) were immunoblotted for actin. (E), differences in posttranslational modifications were detected between native and recombinant STAT5a using mass spectrometry. Native STAT5a from CWR22Rv1 cells and recombinant STAT5a from E. coli were gel-purified, digested using trypsin, and analyzed by bottom-up mass spectrometry. Native full-length STAT5a (blue) is show with recombinant STAT5A highlighted (red). Sites of acetylation and phosphorylation from the respective sources are noted including two previously published sites of phosphorylation (asterisk).
(§2) Given that IST5 suppresses phosphorylation of Stat5 in PC cells, it is possible that IST5 inhibits the kinase(s) responsible for Stat5 phosphorylation and activation in PC cells. To evaluate if IST5 affects kinase activity in cancer cells, we tested kinase inhibitory activity of IST5 in two custom-tailored panels including 54 relevant kinases (Table 1), including Jak1, Jak2, Jak3, Tyk2, Abl1, Abl2, Lck, Fyn, Src and TrkB/C. In addition, we further tested if IST5 inhibits tyrosine phosphorylation of Jak1, Jak2, Jak3 or Tyk2 using a cell-based assay (Figure 5D), where phosphorylation of the kinase is indicative of enzymatic kinase activity. DU145 and CWR22Rv1 cells were treated with IST5 (6 µM) for 6 h followed by immunoprecipitation of Jak1, Jak2, Jak3 and Tyk2 and immunoblotting with anti-phospho-tyrosine antibody. […] Collectively, these findings indicate that the inhibitory effect of IST5 on Stat5 phosphorylation in cancer cells is not due to inhibition of Jak2 or other key kinases including Jak1, Jak3, Tyk2, Src, Lck, Fyn, TrkB/C, Abl1 or Abl2 (Table 1, Figure 5D).
(§3) Cell pellets were solubilized in the lysis buffer (10 mM Tris-HCl (pH 7.6), 5 mM EDTA, 50 mM sodium chloride, 30 mM sodium pyrophosphate, 50 mM sodium fluoride, 1 mM sodium orthovanadate, 1% Triton X-100, 1 mM phenylmethylsulfonyl fluoride, 5 µg/mL aprotinin, 1 µg/mL pepstatin A and 2 µg/mL leupeptin), and protein concentrations of clarified cell lysates were determined by a simplified Bradford method (Bio-Rad, Hercules, CA, USA). The whole cell lysates were immunoprecipitated with polyclonal antibodies (Table S1) followed by incubation with protein A-Sepharose beads (GE Healthcare, Chicago, IL, USA). […]

[2] = target: JAK2 (Homo sapiens, UniProt O60674); assay: as above; parameters: endogenous in cells; host or cells: DU145 and CWR22Pc; details: 6 µM, 6 h
Text: as §1, §2, §3

Sequence of JAK2 (O60674 whole entry): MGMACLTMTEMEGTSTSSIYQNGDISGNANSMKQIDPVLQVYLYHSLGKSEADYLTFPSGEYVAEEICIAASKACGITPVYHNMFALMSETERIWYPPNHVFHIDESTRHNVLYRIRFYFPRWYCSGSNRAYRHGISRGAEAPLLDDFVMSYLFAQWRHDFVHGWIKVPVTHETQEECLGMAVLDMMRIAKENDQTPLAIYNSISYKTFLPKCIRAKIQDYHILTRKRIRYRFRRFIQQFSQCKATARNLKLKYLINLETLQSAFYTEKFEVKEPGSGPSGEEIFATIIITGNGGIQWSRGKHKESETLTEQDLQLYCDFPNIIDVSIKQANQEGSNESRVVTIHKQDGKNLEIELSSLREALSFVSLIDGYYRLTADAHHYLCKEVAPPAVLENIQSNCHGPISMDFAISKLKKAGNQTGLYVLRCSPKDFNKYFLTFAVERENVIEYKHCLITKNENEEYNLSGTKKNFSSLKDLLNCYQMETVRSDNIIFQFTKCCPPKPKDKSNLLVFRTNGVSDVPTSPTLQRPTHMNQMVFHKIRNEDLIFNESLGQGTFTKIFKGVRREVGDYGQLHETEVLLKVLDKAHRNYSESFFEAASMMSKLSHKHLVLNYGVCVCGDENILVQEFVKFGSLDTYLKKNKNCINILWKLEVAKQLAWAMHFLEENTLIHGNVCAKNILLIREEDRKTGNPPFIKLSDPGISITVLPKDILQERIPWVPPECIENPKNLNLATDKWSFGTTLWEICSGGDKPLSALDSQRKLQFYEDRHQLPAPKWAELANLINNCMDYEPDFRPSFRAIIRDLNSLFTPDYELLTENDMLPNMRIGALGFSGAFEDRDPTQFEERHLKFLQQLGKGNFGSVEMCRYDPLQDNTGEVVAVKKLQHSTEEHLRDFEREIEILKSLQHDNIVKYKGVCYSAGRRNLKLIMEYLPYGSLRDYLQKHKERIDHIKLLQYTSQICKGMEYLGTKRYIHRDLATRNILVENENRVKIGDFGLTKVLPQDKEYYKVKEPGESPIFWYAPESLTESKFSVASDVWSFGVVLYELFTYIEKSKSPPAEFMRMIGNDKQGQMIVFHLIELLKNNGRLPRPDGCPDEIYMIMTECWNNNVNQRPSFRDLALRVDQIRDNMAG

O=P(O)(O)OCC1OC(n2cnc3c(NCc4ccccc4)ncnc32)C(O)C1O (stereo not shown) [IST5]
did not alter: phosphorylation of Jak3 ([1]; CWR22Pc cells) | phosphorylation of Jak3 ([1]; DU145 cells) | phosphorylation of Jak2 ([2]; CWR22Pc cells) | phosphorylation of Jak2 ([2]; DU145 cells)
